Data: PMC7060351, “Biochemical features of the novel Tail Tubular Protein A of Yersinia phage phiYeO3-12” (Scientific Reports, 2020)

What was measured:
[1] = biological target: T1, TTPAgp11 (Yersinia phage phiYeO3-12, UniProt Q9T106); assay: GC of released glucose after MTBSTFA derivatisation; type: biochemical; details: PBS, room temperature, 24 h; 20 µl of 47 µM protein, 100 µl of 1 mg/ml maltose in 0.2 ml
T1 construct: gene 11
T1 sequence (Q9T106 1-196): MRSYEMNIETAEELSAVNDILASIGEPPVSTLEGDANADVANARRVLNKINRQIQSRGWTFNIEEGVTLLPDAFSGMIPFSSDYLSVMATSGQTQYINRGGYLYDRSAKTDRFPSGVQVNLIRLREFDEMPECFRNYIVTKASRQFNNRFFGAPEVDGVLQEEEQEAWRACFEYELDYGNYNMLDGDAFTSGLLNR

[2] = biological target: T1, TTPAgp11; assay: backreflection light scattering during nanoDSF melting scan (aggregation); type: binding; details: 0.25 mg/ml protein, 0.15 mg/ml sugar; 2 °C/min from 20 to 95 °C; no unfolding Tm obtained (NA); no scattering transition for protein alone (NA)
Excerpt: backreflection light scattering during nanoDSF melting scan (aggregation) on TTPAgp11

[3] = biological target: T1, TTPAgp11; assay: nanoDSF thermal unfolding ([…] nm ratio); type: binding; details: 0.25 mg/ml protein, 0.15 mg/ml sugar; 2 °C/min from 20 to 95 °C; protein alone Tm 53.27 °C; inverted unfolding profile, aggregation

Compound	% of maltose hydrolyzed [1]	Tm / Scattering / [°C] [2]	Tm / Fluorescence ratio 350 nm/330 nm / [°C] [3]
OC[C@H]1O[C@H](O[C@H]2[C@H](O)[C@@H](O)C(O)O[C@@H]2CO)[C@H](O)[C@@H](O)[C@@H]1O (stereo partly drawn) [maltose]	15–18%	36.26 °C	–
CC(=O)N[C@H]1C(O)O[C@H](CO)[C@@H](O)[C@@H]1O (stereo partly drawn) [N-acetylglucosamine]	–	–	36.41 °C
